According to US9713651B2, “Compositions, methods, and systems for the synthesis and use of imaging agents” (Lantheus Medical Imaging, Inc., priority 2012, dated 2017):
One block for each compound: values may come before it.

Experiments:
hepatocytes = assay: Metabolic profiling of imaging agents in cryopreserved hepatocytes (HPLC with radiodetection); assay type: in vitro ADME; settings: hepatocytes 1×10^6 cells/mL, 37° C./5% CO2; species and incubation time not given
Procedure: Cryopreserved hepatocytes were purchased from Celsis/In Vitro Technologies, Inc. (Baltimore, Md.) and stored at −150° C. prior to use. Multiple lots of hepatocytes for human (mixed sexes 5-donor pool), primate (male, rhesus monkey), dog (male, beagle), rabbit (male, New Zealand white) and rat (male, Sprague-Dawley) were used. On the day of the study, hepatocytes in cryopreserved vials were vented to release any liquid N2 then placed into a 37° C. water bath for 75-90 seconds to thaw. The hepatocytes were transferred into pre-warmed KHB and centrifuged for 5 min at 50×g. The supernatant was discarded and the hepatocytes re-suspended in KHB at a concentration of 1×10^6 cells/mL. Cell viability was confirmed by Trypan blue exclusion.
Test compounds were incubated in hepatocytes (1×10^6 cells/mL; 0.5 mL) were incubated for 0, 15, 30, 60 or 180 min at 37° C./5% CO2 then transferred directly into acetonitrile (1.0 mL), vortexed for 30 s and centrifuged at 2500×g for 20 min. The supernatant was then transferred to a new centrifuge tube, acetonitrile evaporated under a stream of nitrogen in a heating block at 37° C. and, following re-constitution in water, assayed by HPLC with radiodetection.
Extracted samples and standards were analyzed on an Agilent 1100 HPLC (Agilent Technologies, Burlington, Mass.) using a Phenomenex Luna C18 column (5μ; 4.6×150 mm), maintained at ambient temperature (25° C.), and a flow rate of 1.0 mL/min. Mobile phase A contained 0.1% formic acid in water, and mobile phase B contained 0.1% formic acid in acetonitrile. A linear gradient from 5 to 90% B over 15 min was used for elution. A 5 min post-time of 5% B was used to re-equilibrate the column. Radioactive products were recorded using in-line γ- or β-flow detectors (INUS, Tampa, Fla.).

[1] = Tissue distribution of 18F imaging agents in rats; assay type: in vivo, Male Sprague Dawley rats; settings: rat, iv tail vein ~15 μCi, ± SEM
Procedure: Anesthetized (sodium pentobarbital at 50 mg/kg, ip or isoflurane gas inhalation) Male Sprague Dawley rats (250-350 g) received an iv injection of the imaging agent (˜15 μCi) via the tail vein. At 15 or 60 min post injection, the animals were euthanized and the required tissue samples harvested. All samples were then weighed and counted for radioactivity (Wallac Wizard 1480 or Packard Cobra II Autogamma); regional tissue uptake of the imaging agent was thus expressed as a percentage of the total injected dose per gram of tissue (% ID/g).
The generic structure depicted below highlights specific structural features evaluated during distribution experiments.

Structure (SMILES): CC(C)n1ncc(OCc2ccc(COCCF)cc2)c(Cl)c1=O [Example 1, 4-chloro-5-((4-((2-fluoroethoxy)methyl)benzyl)oxy)-2-isopropylpyridazin-3(2H)-one]
% Parent Remaining (hepatocytes): 20%

Structure (SMILES): [2H]C([2H])(OCCF)c1ccc(COc2cnn(C(C)(C)C)c(=O)c2Cl)cc1 [Example 9, 2-(tert-butyl)-4-chloro-5-((4-((2-fluoroethoxy)-d2-methyl)benzyl)oxy)pyridazin-3(2H)-one]
% Parent Remaining (hepatocytes): 73%

Structure (SMILES): CC(OCCF)c1ccc(COc2cnn(C(C)(C)C)c(=O)c2Cl)cc1 (centres unmarked) [Example 16, 2-(tert-butyl)-4-chloro-5-((4-(1-(2-fluoroethoxyl)ethyl)benzyl)oxy)pyridazin-3(2H)-one]
% Parent Remaining (hepatocytes): 20%

Structure (SMILES): CC(C)(C)n1ncc(OCc2ccc(OCCCF)c(Cl)c2)c(Cl)c1=O [Example 25, 2-(tert-butyl)-4-chloro-5-((3-chloro-4-(3-fluoropropoxyl)benzyl)oxy)pyridazin-3(2H)-one]
% Parent Remaining (hepatocytes): 71%

Structure (SMILES): CC(C)(C)n1ncc(OCc2cccc(COCCF)c2)c(Cl)c1=O [Example 35, 2-(tert-butyl)-4-chloro-5-((3-((2-fluoroethoxy)methyl)benzyl)oxy)pyridazin-3(2H)-one]
% Parent Remaining (hepatocytes): 30%

Structure (SMILES): Cc1c(OCc2ccc(COCCF)cc2)cnn(C(C)(C)C)c1=O [Example 40]
% Parent Remaining (hepatocytes): 34%

Structure (SMILES): CC(C)(C)n1ncc(OCc2ccc(C#CCCF)cc2)c(Cl)c1=O [Example 43, 2-(tert-butyl)-4-chloro-5-((4-(4-fluorobut-1-yn-1-yl)benzyl)oxy)pyridazin-3(2H)-one]
% Parent Remaining (hepatocytes): 63%

Structure (SMILES): CC(C)(C)n1ncc(OCc2ccc(C(=O)OCCF)cc2)c(Cl)c1=O [Example 45, 2-fluoroethyl 4-(((1-(tert-butyl)-5-chloro-6-oxo-1,6-dihydropyridazin-4-yl)oxy)methyl)benzoate]
% Parent Remaining (hepatocytes): 19%

Structure (SMILES): CC(C)(C)n1ncc(CCc2ccc(COCCF)cc2)c(Cl)c1=O [Example 61]
% Parent Remaining (hepatocytes): 6%

Structure (SMILES): CC(C)(C)n1ncc(OCc2ccc([Si](F)(C(C)(C)C)C(C)(C)C)cc2)c(Cl)c1=O [Example 62B, 2-(tert-butyl)-4-chloro-5-((4-(di-tert-butylfluorosilyl)benzyl)oxy)pyridazin-3 (2H)-one]
% Parent Remaining (hepatocytes): 98%

Other lines, results leading:

% Parent Remaining (hepatocytes): 95%
Structure (SMILES): CC(C)(C)n1ncc(OCc2ccc(-c3cnc(F)nc3)cc2)c(Cl)c1=O [Example 48C, 2-(tert-butyl)-4-chloro-5-((4-(2-fluoropyrimidin-5-yl)benzyl)oxy)pyridazin-3(2H)-one]

% Parent Remaining (hepatocytes): 31%
Structure (SMILES): CC(C)(C)n1ncc(OCc2ccc(C(=O)OCCCF)cc2)c(Cl)c1=O [Example 57B, 3-fluoropropyl 4-(((1-(tert-butyl)-5-chloro-6-oxo-1,6-dihydropyridazin-4-yl)oxy)methyl)benzoate]

Blood, imaging agent distribution at 15 min ([1]; 15 min post injection): 0.07 ± 0.03 % ID/g
Brain, imaging agent distribution at 15 min ([1]; 15 min post injection): 0.36 ± 0.04 % ID/g
Femur, imaging agent distribution at 15 min ([1]; 15 min post injection): 0.27 ± 0.02 % ID/g
Heart, imaging agent distribution at 15 min ([1]; 15 min post injection): 2.68 ± 0.35 % ID/g
Kidney, imaging agent distribution at 15 min ([1]; 15 min post injection): 1.35 ± 0.14 % ID/g
Liver, imaging agent distribution at 15 min ([1]; 15 min post injection): 0.99 ± 0.06 % ID/g
Lung, imaging agent distribution at 15 min ([1]; 15 min post injection): 0.37 ± 0.15 % ID/g
Muscle, imaging agent distribution at 15 min ([1]; 15 min post injection): 0.28 ± 0.02 % ID/g
Pancreas, imaging agent distribution at 15 min ([1]; 15 min post injection): 0.55 ± 0.10 % ID/g
Spleen, imaging agent distribution at 15 min ([1]; 15 min post injection): 0.31 ± 0.09 % ID/g
Blood, imaging agent distribution at 60 min ([1]; 60 min post injection): 0.03 ± 0.00 % ID/g
Brain, imaging agent distribution at 60 min ([1]; 60 min post injection): 0.36 ± 0.03 % ID/g
Femur, imaging agent distribution at 60 min ([1]; 60 min post injection): 0.37 ± 0.05 % ID/g
Heart, imaging agent distribution at 60 min ([1]; 60 min post injection): 2.46 ± 0.27 % ID/g
Kidney, imaging agent distribution at 60 min ([1]; 60 min post injection): 0.83 ± 0.08 % ID/g
Liver, imaging agent distribution at 60 min ([1]; 60 min post injection): 0.83 ± 0.17 % ID/g
Lung, imaging agent distribution at 60 min ([1]; 60 min post injection): 0.15 ± 0.03 % ID/g
Muscle, imaging agent distribution at 60 min ([1]; 60 min post injection): 0.39 ± 0.04 % ID/g
Pancreas, imaging agent distribution at 60 min ([1]; 60 min post injection): 0.38 ± 0.02 % ID/g
Spleen, imaging agent distribution at 60 min ([1]; 60 min post injection): 0.11 ± 0.02 % ID/g
Structure (SMILES): CC(C)(C)n1ncc(OCc2ccc(Oc3cccnc3F)cc2)c(Cl)c1=O [Example 67O]
